Source: patent US11149062B2, “HDAC inhibitors and methods of treatment using the same” (UWM Research Foundation, Inc., priority 2015, dated 2021)

Key:
Recombinant human HDAC2 = target: T1, Recombinant human HDAC2 (Homo sapiens, UniProt Q92769); experiment: HDAC-Glo I/II assay, HDAC2; type: biochemical; conditions: Class I HDAC; compounds reduced by TCEP prior to assay
T1 construct: purchased BPS Bioscience Inc
Procedure: (§1) The purified compounds of all fragments and natural product derivatives were evaluated for inhibitory effects on three different classes of HDAC proteins (class I, IIa, and IIb). […] All activity was determined by using a fluorescence-based in vitro assay. Class I HDAC proteins that were evaluated were HDAC1, HDAC2, HDAC3, HDAC8, HDAC4, and HDAC6. Class IIa HDAC protein were HDAC4 and the Class IIb HDAC protein were HDAC6.
(§2) HDAC-Glo™ I/II Assay and Screening System (Promega) was used to determine the HDAC inhibitory activity. Recombinant human HDAC1, HDAC2, HDAC3, HDAC4, HDAC6 and HDAC8 were purchased from BPS Bioscience Inc. The inhibitory activities of the test compounds against recombinant HDAC were performed according to reagent suppliers' protocols.
(§3) All test compounds were firstly dissolved in DMSO to make 10 mM stock solution. A certain amount of stock solution was diluted to 1 mM by DMSO and then reduced by tris(2-carboxyethyl)phosphine hydrochloride (TCEP) in a molar ration of 1:1.5 for 20 min at ambient temperature prior to being assayed. After reduction, a series of fivefold dilutions of each reduced compound were prepared with HDAC-Glo buffer and 25 μL of each dilution was added into a well on a 96-well plate. HDAC enzymes were diluted to the desired concentrations with HDAC-Glo buffer and 25 μL of each diluted enzyme was dispensed into a well to mix with 25 μL of testing compound at room temperature for 30-60 seconds. After the reaction mixture had been incubated at room temperature for 1 hour, 50 μL of HDAC-Glo reagent was added to each reaction well and mixed up for 30-60 seconds. Finally, the plate was incubated at room temperature for an additional 30 minutes before the luminescence was measured on a Synergy HT plate reader (Bio-Tek). The luminescence intensity data were analyzed using GraphPad Prism 5 (GraphPad Software). In the absence of any test compound, the luminescence intensity (I100) in each data set was defined as 100% activity. In the absence of both of HDAC enzymes and test compound, the luminescence intensity (I0) in each data set was defined as 0% activity. The relative activity (%) in the presence of each compound was calculated according to the following equation: % activity=(I−I0)/(I100−I0), where I=the luminescence intensity if a compound is present in the reaction. Experiments were performed in triplicate and the calculated mean values were used for plotting.

[1] = test system: colon (HCT-116), cervical (HeLa), and renal (RFX393) tumor cell lines; experiment: MTT antiproliferative assay, all three tumor cell lines; type: cell-based; conditions: HCT-116, HeLa, RFX393; summary of Table 3; read-out: GI50 values against all three tumor cell lines
Procedure: Briefly, the tumor cells (1×10^4 cells/well) were seeded in 96-well microtiter plates and incubated for 24 h at 37° C. Following incubation, the media was replaced with fresh media containing the above compounds at concentrations ranging from 1 μM to 1 pM diluted in DMSO and incubated for an additional 48 h. Drugs were run in duplicate or triplicate and control cells received fresh media with DMSO concentration equivalent to the treatment groups. […] After aspirating the culture medium, 200 μL of DMSO was added to dissolve the precipitate and the resulting solution was measured for absorbance at 570 nm with a reference wavelength of 690 nm using a microplate reader (Infinite M200 Pro TECAN).

Recombinant human HDAC3 = target: T2, Recombinant human HDAC3 (Homo sapiens, UniProt O15379); experiment: HDAC-Glo I/II assay, HDAC3; type: biochemical; conditions: Class I HDAC; compounds reduced by TCEP prior to assay
T2 construct: purchased BPS Bioscience Inc
Procedure: as §1, §2, §3

Recombinant human HDAC1 = target: T3, Recombinant human HDAC1 (Homo sapiens, UniProt Q13547); experiment: HDAC-Glo I/II assay, HDAC1; type: biochemical; conditions: for IC50: Class I HDAC, compounds reduced by TCEP prior to assay, read-out: IC50 of HDAC1; for Class I selectivity Ratio HDAC 1/HDAC8: ratio of IC50 values
T3 construct: purchased BPS Bioscience Inc
Procedure: as §1, §2, §3

Recombinant human HDAC6 = target: T4, Recombinant human HDAC6 (Homo sapiens, UniProt Q9UBN7); experiment: HDAC-Glo I/II assay, HDAC6; type: biochemical
T4 construct: purchased BPS Bioscience Inc
T4 sequence (Q9UBN7 1-1215): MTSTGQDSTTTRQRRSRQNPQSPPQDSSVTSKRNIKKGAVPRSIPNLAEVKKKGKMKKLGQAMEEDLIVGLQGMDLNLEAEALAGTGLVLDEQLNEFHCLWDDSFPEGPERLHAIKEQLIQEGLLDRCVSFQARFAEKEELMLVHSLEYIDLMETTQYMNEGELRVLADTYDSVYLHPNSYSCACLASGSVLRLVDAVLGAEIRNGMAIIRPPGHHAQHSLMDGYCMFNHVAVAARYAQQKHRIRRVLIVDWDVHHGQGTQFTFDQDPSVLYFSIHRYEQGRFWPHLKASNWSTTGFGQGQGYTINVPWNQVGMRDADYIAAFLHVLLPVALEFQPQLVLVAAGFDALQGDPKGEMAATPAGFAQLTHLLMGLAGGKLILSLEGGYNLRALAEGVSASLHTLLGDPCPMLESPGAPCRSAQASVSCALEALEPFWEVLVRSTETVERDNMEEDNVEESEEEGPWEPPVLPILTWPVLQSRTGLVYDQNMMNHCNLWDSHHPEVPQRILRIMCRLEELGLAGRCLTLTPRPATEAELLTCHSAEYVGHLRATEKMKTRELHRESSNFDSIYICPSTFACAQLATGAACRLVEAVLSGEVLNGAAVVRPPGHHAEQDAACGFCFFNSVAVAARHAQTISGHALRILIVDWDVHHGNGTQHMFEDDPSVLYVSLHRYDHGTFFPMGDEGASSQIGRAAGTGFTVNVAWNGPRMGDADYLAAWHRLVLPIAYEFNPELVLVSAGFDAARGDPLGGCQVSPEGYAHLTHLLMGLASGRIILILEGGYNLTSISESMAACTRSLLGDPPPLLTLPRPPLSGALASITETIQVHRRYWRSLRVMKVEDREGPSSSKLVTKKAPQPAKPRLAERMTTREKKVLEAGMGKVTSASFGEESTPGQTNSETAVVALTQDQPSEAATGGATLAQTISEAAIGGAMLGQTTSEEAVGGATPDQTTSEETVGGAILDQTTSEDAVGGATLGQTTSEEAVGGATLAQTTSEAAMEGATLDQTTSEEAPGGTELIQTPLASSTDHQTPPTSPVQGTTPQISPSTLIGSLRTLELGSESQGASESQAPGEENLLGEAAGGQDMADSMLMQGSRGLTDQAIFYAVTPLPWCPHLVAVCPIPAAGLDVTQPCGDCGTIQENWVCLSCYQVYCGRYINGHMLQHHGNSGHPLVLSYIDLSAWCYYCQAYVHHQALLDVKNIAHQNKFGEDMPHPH
Procedure: as §1
HDAC-Glo™ I/II Assay and Screening System (Promega) was used to determine the HDAC inhibitory activity. […]
All test compounds were firstly dissolved in DMSO to make 10 mM stock solution. […] Finally, the plate was incubated at room temperature for an additional 30 minutes before the luminescence was measured on a Synergy HT plate reader (Bio-Tek). The luminescence intensity data were analyzed using GraphPad Prism 5 (GraphPad Software). In the absence of any test compound, the luminescence intensity (I100) in each data set was defined as 100% activity. In the absence of both of HDAC enzymes and test compound, the luminescence intensity (I0) in each data set was defined as 0% activity. The relative activity (%) in the presence of each compound was calculated according to the following equation: % activity=(I−I0)/(I100−I0), where I=the luminescence intensity if a compound is present in the reaction. […]

T3 sequence (Q13547 whole entry): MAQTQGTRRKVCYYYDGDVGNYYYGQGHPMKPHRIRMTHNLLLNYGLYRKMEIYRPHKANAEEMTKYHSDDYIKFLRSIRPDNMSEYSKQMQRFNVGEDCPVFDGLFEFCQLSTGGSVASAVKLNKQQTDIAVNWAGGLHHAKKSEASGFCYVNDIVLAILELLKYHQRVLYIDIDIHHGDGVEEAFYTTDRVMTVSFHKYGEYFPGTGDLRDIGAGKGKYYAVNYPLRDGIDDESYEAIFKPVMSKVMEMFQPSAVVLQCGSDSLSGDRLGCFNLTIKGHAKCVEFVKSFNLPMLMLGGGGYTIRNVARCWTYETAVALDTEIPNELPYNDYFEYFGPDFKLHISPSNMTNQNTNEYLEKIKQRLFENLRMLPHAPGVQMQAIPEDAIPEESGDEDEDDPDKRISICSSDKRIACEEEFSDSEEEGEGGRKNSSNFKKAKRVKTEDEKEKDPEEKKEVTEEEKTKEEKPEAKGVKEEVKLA
T2 sequence (O15379 whole entry): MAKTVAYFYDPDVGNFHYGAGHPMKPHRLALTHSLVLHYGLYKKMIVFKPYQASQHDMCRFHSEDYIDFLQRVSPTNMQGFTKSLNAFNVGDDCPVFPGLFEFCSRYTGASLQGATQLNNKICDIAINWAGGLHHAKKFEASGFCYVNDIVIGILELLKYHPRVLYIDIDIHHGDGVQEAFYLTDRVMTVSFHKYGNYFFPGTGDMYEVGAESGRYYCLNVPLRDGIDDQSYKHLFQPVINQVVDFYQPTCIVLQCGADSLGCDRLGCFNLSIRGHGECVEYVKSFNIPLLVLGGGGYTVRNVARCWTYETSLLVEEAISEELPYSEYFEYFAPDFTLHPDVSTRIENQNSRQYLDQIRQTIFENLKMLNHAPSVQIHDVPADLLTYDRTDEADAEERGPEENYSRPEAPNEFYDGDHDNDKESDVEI
T2 sequence (Q9Y618 395-489 partner limits assumed): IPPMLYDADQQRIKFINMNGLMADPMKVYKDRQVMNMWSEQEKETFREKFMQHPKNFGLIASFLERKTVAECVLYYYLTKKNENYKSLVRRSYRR
T1 sequence (Q92769 whole entry): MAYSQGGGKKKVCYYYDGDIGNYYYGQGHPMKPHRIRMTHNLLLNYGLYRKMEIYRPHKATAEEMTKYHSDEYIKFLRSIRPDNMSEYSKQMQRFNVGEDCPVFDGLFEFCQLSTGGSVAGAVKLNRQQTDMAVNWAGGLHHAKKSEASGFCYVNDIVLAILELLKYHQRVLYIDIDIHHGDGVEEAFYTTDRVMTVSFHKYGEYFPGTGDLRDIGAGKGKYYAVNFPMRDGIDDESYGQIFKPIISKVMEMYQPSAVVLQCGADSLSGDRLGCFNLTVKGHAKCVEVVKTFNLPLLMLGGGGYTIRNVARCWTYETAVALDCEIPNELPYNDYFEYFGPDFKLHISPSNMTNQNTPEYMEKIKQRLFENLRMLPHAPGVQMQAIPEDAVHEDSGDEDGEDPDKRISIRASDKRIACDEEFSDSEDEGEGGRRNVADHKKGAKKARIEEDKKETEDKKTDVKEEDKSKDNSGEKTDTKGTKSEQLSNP

Row | SMILES | IC50 (Recombinant human HDAC2) [nM] | GI50 [1] [nM] | IC50 (Recombinant human HDAC3) [nM] | IC50 (Recombinant human HDAC1) [nM] | Class I selectivity Ratio HDAC 1/HDAC8 (Recombinant human HDAC1) | inhibitory activity toward HDAC6 (in words) (Recombinant human HDAC6)
1 | CSCC[C@H]1NC(=O)CC(O)/C=C/CCSSC[C@H](C(=O)O)NC1=O (stereo partly drawn) [TDF3, (4S,7R,12E)-11-hydroxy-7-[2-(methylsulfanyl)ethyl]-6,9-dioxo-1,2-dithia-5,8-diazacyclopentadec-12-ene-4-carboxylic acid] | 87.5 | 600 | 819 | 22.9 | 0.00036 | no inhibitory activity
2 | COC(=O)[C@H]1CSSCC/C=C/C(O)CC(=O)N[C@H](CCSC)C(=O)N1 (stereo partly drawn) [TDF3m, Methyl (4S,7R,12E)-11-hydroxy-7-[2-(methylsulfanyl)ethyl]-6,9-dioxo-1,2-dithia-5,8-diazacyclopentadec-12-ene-4-carboxylate] | 94.2 | 400 | 623 | 12.5 | 0.00028 | no inhibitory activity
